Source: ChEMBL document CHEMBL4184120, “Target ROS to induce apoptosis and cell cycle arrest by 5,7-dimethoxy-1,4-naphthoquinone derivative” (Bioorg Med Chem Lett, 2018)
Activity calls are given as the source filed them. The calls are words filed in the database; no cut-off is given here.

What was measured:
[1] = tested on: HeLa; test: Antiproliferative activity against human HeLa cells after 48 hrs by MTT assay; assay type: functional, cell-based
[2] = tested on: HepG2; test: Antiproliferative activity against human HepG2 cells after 48 hrs by MTT assay; assay type: functional, cell-based; details: HepG2, 48 h
[3] = tested on: A549; test: Antiproliferative activity against human A549 cells after 48 hrs by MTT assay; assay type: functional, cell-based; details: A549, 48 h
[4] = tested on: NCI-H460; test: Antiproliferative activity against human NCI-H460 cells after 48 by hrs MTT assay; assay type: functional, cell-based
[5] = tested on: HL-60; test: Antiproliferative activity against human HL60 cells after 48 hrs by MTT assay; assay type: functional, cell-based; details: HL-60, 48 h
[6] = tested on: K562; test: Antiproliferative activity against human K562 cells after 48 hrs by MTT assay; assay type: functional, cell-based; details: K562, 48 h
[7] = tested on: WI-38; test: Antiproliferative activity against human WI38 cells after 48 hrs by MTT assay; assay type: cell-based; details: WI-38, 48 h
[8] = Selectivity index, ratio of IC50 for human WI38 cells to IC50 for human HL60 cells; assay type: toxicity; details: WI38 cells and HL60 cells, read-out: Ratio IC50
[9] = tested on: HL-60; test: Induction of ROS generation in human HL60 cells after 6 hrs by DCFH-DA staining-based fluorescence microscopic analysis; assay type: functional, cell-based
[10] = tested on: HL-60; test: Induction of ROS generation in human HL60 cells at 4 uM incubated for 6 hrs starting from 1 hr post antioxidant NAC addition by DCFH-DA staining-based fluorescence microscopic analysis; assay type: functional, cell-based
[11] = tested on: HL-60; test: Induction of apoptosis in human HL60 cells assessed as condensed nuclei formation after 24 hrs by Hoechst-33342 staining-based fluorescence microscopic analysis; assay type: functional, cell-based
[12] = tested on: HL-60; test: Induction of apoptosis in human HL60 cells assessed as nuclear fragmentation after 24 hrs by Hoechst-33342 staining-based fluorescence microscopic analysis; assay type: functional, cell-based
[13] = tested on: HL-60; test: Induction of apoptosis in human HL60 cells assessed as early apoptotic cells at 1 uM after 48 hrs by Annexin V-FITC/propidium iodide staining based flow cytometry (reference value: 3.13%); assay type: functional
[14] = tested on: HL-60; test: Induction of apoptosis in human HL60 cells assessed as late apoptotic cells at 1 uM after 48 hrs by Annexin V-FITC/propidium iodide staining based flow cytometry (reference value: 1.23%); assay type: functional
[15] = tested on: HL-60; test: Induction of apoptosis in human HL60 cells assessed as early apoptotic cells at 2 uM after 48 hrs by Annexin V-FITC/propidium iodide staining based flow cytometry (reference value: 3.13%); assay type: functional
[16] = tested on: HL-60; test: Induction of apoptosis in human HL60 cells assessed as late apoptotic cells at 2 uM after 48 hrs by Annexin V-FITC/propidium iodide staining based flow cytometry (reference value: 1.23%); assay type: functional
[17] = tested on: HL-60; test: Induction of apoptosis in human HL60 cells assessed as early apoptotic cells at 4 uM after 48 hrs by Annexin V-FITC/propidium iodide staining based flow cytometry (reference value: 3.13%); assay type: functional
[18] = tested on: HL-60; test: Induction of apoptosis in human HL60 cells assessed as late apoptotic cells at 4 uM after 48 hrs by Annexin V-FITC/propidium iodide staining based flow cytometry (reference value: 1.23%); assay type: functional
[19] = tested on: HL-60; test: Induction of apoptosis in human HL60 cells assessed as late apoptotic cells at 4 uM incubated for 48 hrs starting from 1 hr post antioxidant NAC addition by Annexin V-FITC/propidium iodide staining based flow cytometry (reference value: 1.23%); assay type: functional
[20] = tested on: HL-60; test: Induction of apoptosis in human HL60 cells assessed as early apoptotic cells at 4 uM incubated for 48 hrs starting from 1 hr post antioxidant NAC addition by Annexin V-FITC/propidium iodide staining based flow cytometry (reference value: 3.13%); assay type: functional
[21] = tested on: HL-60; test: Induction of apoptosis in human HL60 cells assessed as early apoptotic cells after 48 hrs by Annexin V-FITC/propidium iodide staining based flow cytometry; assay type: functional, cell-based
[22] = tested on: HL-60; test: Induction of apoptosis in human HL60 cells assessed as late apoptotic cells after 48 hrs by Annexin V-FITC/propidium iodide staining based flow cytometry; assay type: functional, cell-based
[23] = tested on: HL-60; test: Induction of apoptosis in human HL60 cells assessed as necrotic cells after 48 hrs by Annexin V-FITC/propidium iodide staining based flow cytometry; assay type: functional, cell-based
[24] = tested on: HL-60; test: Cell cycle arrest in human HL60 cells assessed as accumulation at G0/G1 phase at 1 uM after 48 hrs by propidium iodide staining based assay (reference value: 50.88%); assay type: functional
[25] = tested on: HL-60; test: Cell cycle arrest in human HL60 cells assessed as accumulation at S phase at 1 uM after 48 hrs by propidium iodide staining based assay (reference value: 46.44%); assay type: functional
[26] = tested on: HL-60; test: Cell cycle arrest in human HL60 cells assessed as accumulation at G2/M phase at 1 uM after 48 hrs by propidium iodide staining based assay (reference value: 2.68%); assay type: functional
[27] = tested on: HL-60; test: Cell cycle arrest in human HL60 cells assessed as accumulation at G0/G1 phase at 2 uM after 48 hrs by propidium iodide staining based assay (reference value: 50.88%); assay type: functional
[28] = tested on: HL-60; test: Cell cycle arrest in human HL60 cells assessed as accumulation at S phase at 2 uM after 48 hrs by propidium iodide staining based assay (reference value: 46.44%); assay type: functional
[29] = tested on: HL-60; test: Cell cycle arrest in human HL60 cells assessed as accumulation at G2/M phase at 2 uM after 48 hrs by propidium iodide staining based assay (reference value: 2.68%); assay type: functional
[30] = tested on: HL-60; test: Cell cycle arrest in human HL60 cells assessed as accumulation at G0/G1 phase at 4 uM after 48 hrs by propidium iodide staining based assay (reference value: 50.88%); assay type: functional
[31] = tested on: HL-60; test: Cell cycle arrest in human HL60 cells assessed as accumulation at S phase at 4 uM after 48 hrs by propidium iodide staining based assay (reference value: 46.44%); assay type: functional
[32] = tested on: HL-60; test: Cell cycle arrest in human HL60 cells assessed as accumulation at G2/M phase at 4 uM after 48 hrs by propidium iodide staining based assay (reference value: 2.68%); assay type: functional
[33] = tested on: HL-60; test: Cell cycle arrest in human HL60 cells assessed as accumulation at G0/G1 phase at 4 uM incubated for 48 hrs starting from 1 hr post antioxidant NAC addition by propidium iodide staining based assay (reference value: 50.88%); assay type: functional
[34] = tested on: HL-60; test: Cell cycle arrest in human HL60 cells assessed as accumulation at S phase at 4 uM incubated for 48 hrs starting from 1 hr post antioxidant NAC addition by propidium iodide staining based assay (reference value: 46.44%); assay type: functional
[35] = tested on: HL-60; test: Cell cycle arrest in human HL60 cells assessed as accumulation at G2/M phase at 4 uM incubated for 48 hrs starting from 1 hr post antioxidant NAC addition by propidium iodide staining based assay (reference value: 2.68%); assay type: functional
[36] = tested on: HL-60; test: Induction of apoptosis in human HL60 cells assessed as condensed nuclei formation at 4 uM preincubated for 1 hr with antioxidant NAC measured after 24 hrs by Hoechst-33342 staining-based fluorescence microscopic analysis; assay type: functional, cell-based
[37] = tested on: HL-60; test: Induction of apoptosis in human HL60 cells assessed as nuclear fragmentation at 4 uM preincubated for 1 hr with antioxidant NAC measured after 24 hrs by Hoechst-33342 staining-based fluorescence microscopic analysis; assay type: functional, cell-based
[38] = Selectivity ratio of IC50 for human K562 cells to IC50 for human HL60 cells; assay type: functional
[39] = Redox potential of the compound in pH 7.4 PBS buffer assessed as reduction potential at 0.4 mM by cyclic voltametry; assay type: physicochemical; details: pH 7.4, 400 µM
[40] = Redox potential of the compound in pH 7.4 PBS buffer assessed as oxidation potential at 0.4 mM by cyclic voltametry; assay type: physicochemical; details: pH 7.4, 400 µM
[41] = Redox potential of the compound in pH 7.4 PBS buffer assessed as half wave potential at 0.4 mM by cyclic voltametry; assay type: physicochemical; details: pH 7.4, 400 µM

`CCCCCCCCCCC1=C(O)C(=O)c2cc(OC)cc(OC)c2C1=O` showed an IC50 [1] of over 100 µM, an IC50 [2] of over 100 µM and an IC50 [3] of over 100 µM. For the same compound, the IC50 [4] was over 100 µM and the IC50 [5] was 95.5 µM.
With `O=c1[nH]cc(F)c(=O)[nH]1` [FLUOROURACIL] the IC50 [1] was 30.2 µM, the IC50 [2] was 36.6 µM and the IC50 [5] was 67.2 µM.
In the case of `COc1ccc(CCC2=C(Cl)C(=O)c3cc(OC)cc(OC)c3C2=O)cc1`, the IC50 [1] is reported as 29.3 µM, the IC50 [2] is reported as 37.1 µM and the IC50 [3] is reported as 83.1 µM. It also gave an IC50 [4] of over 100 µM, an IC50 [5] of 15.3 µM and an IC50 [6] of 19.2 µM. For the same compound, the IC50 [7] was 26.8 µM and the selectivity ratio [8] was 1.8.
Work on `CCCCCCCCC1=C(O)C(=O)c2cc(OC)cc(OC)c2C1=O` yielded an IC50 [1] of over 100 µM, an IC50 [2] of over 100 µM and an IC50 [3] of over 100 µM. The IC50 [4] was over 100 µM and the IC50 [5] was over 100 µM.
Work on `CCCCC1=C(Cl)C(=O)c2cc(OC)cc(OC)c2C1=O` yielded an IC50 [1] of 22.3 µM, an IC50 [2] of 23.1 µM and an IC50 [3] of 24.1 µM. It also gave an IC50 [4] of 38.7 µM, an IC50 [5] of 3.8 µM and an IC50 [6] of 32.3 µM. The IC50 [7] was 40.7 µM, the selectivity ratio [8] was 10.7 and the Activity [9] was “Dose-dependent effect”. The Activity [10] was “inactive”, the Activity [11] was “Dose-dependent effect” and the Activity [12] was “Dose-dependent effect”. For the same compound, the Activity [13] was 4.48%, the Activity [14] was 14.9% and the Activity [15] was 7.35%. The Activity [16] was 20.9%, the Activity [17] was 26.6% and the Activity [18] was 40.4%. For the same compound, the Activity [19] was 6.78%, the Activity [20] was 2.08% and the Activity [21] was “Dose-dependent effect”. The Activity [22] was “Dose-dependent effect”, the Activity [23] was “Dose-dependent effect” and the Activity [24] was 35.72%. It also gave an Activity [25] of 51.13%, an Activity [26] of 13.15% and an Activity [27] of 34.89%. The Activity [28] was 47.42%, the Activity [29] was 17.69% and the Activity [30] was 18.18%. The Activity [31] was 49.89%, the Activity [32] was 31.93% and the Activity [33] was 48.52%. The Activity [34] was 43.67%, the Activity [35] was 7.8% and the Activity [36] was “Active”. For the same compound, the Activity [37] was “Active”, the “Ratio IC50” value [38] was 8 and the Activity [39] was -0.235 V. For the same compound, the Activity [40] was -0.169 V and the Activity [41] was -0.202 V.
`COc1cc(OC)c2c(c1)C(=O)C(O)=C(CCc1ccccc1)C2=O` gave an IC50 [1] of over 100 µM, an IC50 [2] of 95.7 µM and an IC50 [3] of over 100 µM. The IC50 [4] was over 100 µM and the IC50 [5] was 96.1 µM.
Work on `COc1cc(OC)c2c(c1)C(=O)C(O)=C(C)C2=O` yielded an IC50 [1] of 90.2 µM, an IC50 [2] of over 100 µM and an IC50 [3] of over 100 µM. It also gave an IC50 [4] of over 100 µM and an IC50 [5] of over 100 µM.
`CCCCCCC1=C(O)C(=O)c2cc(OC)cc(OC)c2C1=O` showed an IC50 [1] of over 100 µM, an IC50 [2] of 90.4 µM and an IC50 [3] of over 100 µM. For the same compound, the IC50 [4] was over 100 µM and the IC50 [5] was over 100 µM.
With `CCCCC1=C(O)C(=O)c2cc(OC)cc(OC)c2C1=O` the IC50 [1] was over 100 µM, the IC50 [2] was 95.9 µM and the IC50 [3] was 65.4 µM. It also gave an IC50 [4] of over 100 µM, an IC50 [5] of over 100 µM and an Activity [39] of -0.328 V. For the same compound, the Activity [40] was -0.227 V and the Activity [41] was -0.278 V.
With `CCCC1=C(O)C(=O)c2cc(OC)cc(OC)c2C1=O` the IC50 [1] was over 100 µM, the IC50 [2] was over 100 µM and the IC50 [3] was 78.7 µM. For the same compound, the IC50 [4] was over 100 µM and the IC50 [5] was over 100 µM.
`COc1cc(OC)c2c(c1)C(=O)C(O)=C(CCc1ccc(N(CCCl)CCCl)cc1)C2=O` gave an IC50 [1] of over 100 µM, an IC50 [2] of 81.4 µM and an IC50 [3] of over 100 µM. For the same compound, the IC50 [4] was over 100 µM and the IC50 [5] was 26.1 µM.
